Laboratory results from ChEMBL document CHEMBL5375955, “Discovery of New Fusobacterium nucleatum Inhibitors to Attenuate Migratory Capability of Colon Cancer Cells by the Drug Repositioning Strategy” (J Med Chem, 2023).
Values after ≈ are worked out from the molar mass of the structure shown. Active and inactive are the calls of the source. The calls are words filed in the database; no cut-off is given here.

Columns and labels:
[1] = Cytotoxicity against HUVEC cells assessed as inhibition of cell growth incubated for 48 hrs by CCK-8 assay; type: toxicity, cell-based; settings: human
[2] = system: Salmonella enterica subsp. enterica serovar Paratyphi B; experiment: Antibacterial activity against Salmonella paratyphi B ATCC CMCC50094 assessed as bacterial growth inhibition incubated for 48 hrs by broth dilution susceptibility test; type: functional
[3] = system: Fusobacterium nucleatum; experiment: Antibacterial activity against Fusobacterium nucleatum ATCC 23726 assessed as bacterial growth inhibition incubated for 48 hrs by broth dilution susceptibility test; type: functional
[4] = Acute toxicity in po dosed ICR mouse assessed as kidney damage at 1500 mg/kg, po measured after 7 days by H and E staining based analysis; type: organism-based; settings: in vivo, 168 h, time 7 day
[5] = system: Fusobacterium nucleatum; experiment: Antibacterial activity against Fusobacterium nucleatum ATCC 23726 assessed as bacterial growth inhibition at 4 ug/ml incubated for 72 hrs by turbidimeter analysis; type: functional, organism-based; settings: dose 4.0 µg/ml
[6] = Metabolic stability in mouse liver microsomes assessed as half life at 1 uM incubated for 45 mins in presence of NADPH by LC-MS/MS analysis; type: ADME, Microsome
[7] = Drug metabolism assessed as NTR(unknown origin)-mediated metabolism at 10 mM incubated for 2 hrs in presence of NADH by LC-MS analysis; type: ADME; settings: bacteria, 10000 µM
[8] = Clearance in Sprague-Dawley rat at 1 mg/kg, iv measured upto 24 hrs by LC-MS/MS analysis; type: ADME, organism-based; settings: in vivo
[9] = system: HCT-116; experiment: Antiproliferative activity against human HCT-116 cells assessed as inhibition of cell growth incubated for 48 hrs by CCK-8 assay; type: functional, cell-based; settings: HCT-116, 48 h
[10] = Acute toxicity in po dosed ICR mouse assessed as animal death measured after 7 days; type: organism-based; settings: in vivo, time 7 day
[11] = system: Staphylococcus aureus; experiment: Antibacterial activity against Staphylococcus aureus ATCC 6538 assessed as bacterial growth inhibition incubated for 48 hrs by broth dilution susceptibility test; type: functional
[12] = Acute toxicity in ICR mouse assessed as death rate at 2160 mg/kg, po measured after 7 days; type: organism-based; settings: in vivo, time 7 day, read-out: Activity
[13] = Acute toxicity in po dosed ICR mouse assessed as lung damage at 1500 mg/kg, po measured after 7 days by H and E staining based analysis; type: organism-based; settings: in vivo, 168 h, time 7 day
[14] = system: Fusobacterium nucleatum; experiment: Antibacterial activity against Fusobacterium nucleatum ATCC 23726 assessed as bacterial growth inhibition incubated for 72 hrs by turbidimeter analysis; type: functional, organism-based
[15] = system: Fusobacterium nucleatum; experiment: Inhibition of Fusobacterium nucleatum ATCC 23726 stimulated mouse MC-38 cell migration assessed as reduction in number of migrating cells at 2 to 4 ug/ml incubated for 48 hrs by crystal violet staining based transwell assay; type: functional; settings: dose 2-4 µg/ml
[16] = Oral bioavailability in Sprague-Dawley rat at 20 mg/kg measured upto 24 hrs by LC-MS/MS analysis; type: ADME, organism-based; settings: in vivo
[17] = system: Peptostreptococcus anaerobius; experiment: Antibacterial activity against Peptostreptococcus anaerobius ATCC 27337 assessed as bacterial growth inhibition incubated for 48 hrs by broth dilution susceptibility test; type: functional
[18] = system: Akkermansia muciniphila; experiment: Antibacterial activity against Akkermansia muciniphila ATCC BAA-835 assessed as bacterial growth inhibition incubated for 48 hrs by broth dilution susceptibility test; type: functional
[19] = system: Fusobacterium nucleatum; experiment: Antibiofilm activity against Fusobacterium nucleatum ATCC 23726 assessed as inhibition of biofilm formation incubated for 48 hrs by crystal violet staining based assay; type: functional, organism-based; settings: dose 0.5-16 µg/ml
[20] = system: Enterococcus faecalis; experiment: Antibacterial activity against Enterococcus faecalis ATCC 29212 assessed as bacterial growth inhibition incubated for 48 hrs by broth dilution susceptibility test; type: functional
[21] = system: Lactobacillus acidophilus; experiment: Antibacterial activity against Lactobacillus acidophilus ATCC CGMCC 1.577 assessed as bacterial growth inhibition incubated for 48 hrs by broth dilution susceptibility test; type: functional
[22] = Acute toxicity in po dosed ICR mouse assessed as heart damage at 1500 mg/kg, po measured after 7 days by H and E staining based analysis; type: organism-based; settings: in vivo, 168 h, time 7 day
[23] = system: Fusobacterium nucleatum; experiment: Antibiofilm activity against Fusobacterium nucleatum ATCC 23726 assessed as downregulation of tnaA gene expression measured after 48 hrs by RT-qPCR analysis; type: functional, organism-based
[24] = system: Fusobacterium nucleatum; experiment: Antibiofilm activity against Fusobacterium nucleatum ATCC 23726 assessed as inhibition of biofilm formation at 1 ug/ml incubated for 48 hrs by crystal violet staining based assay relative to control; type: functional
[25] = Acute toxicity in ICR mouse assessed as death rate at 2592 mg/kg, po measured after 7 days; type: organism-based; settings: in vivo, time 7 day, read-out: Activity
[26] = system: MC-38; experiment: Antiproliferative activity against mouse MC-38 cells assessed as inhibition of cell growth incubated for 48 hrs by CCK-8 assay; type: functional, cell-based; settings: MC-38, 48 h
[27] = Acute toxicity in po dosed ICR mouse assessed as spleen damage at 1500 mg/kg, po measured after 7 days by H and E staining based analysis; type: organism-based; settings: in vivo, 168 h, time 7 day
[28] = Acute toxicity in po dosed ICR mouse assessed as liver damage at 1500 mg/kg, po measured after 7 days by H and E staining based analysis; type: organism-based; settings: in vivo, 168 h, time 7 day
[29] = system: Fusobacterium nucleatum; experiment: Antibacterial activity against Fusobacterium nucleatum ATCC 23726 assessed as downregulation of NTR gene expression incubated for 48 hrs by RT-qPCR analysis; type: functional, organism-based
[30] = Half life in Sprague-Dawley rat at 1 mg/kg, iv measured upto 24 hrs by LC-MS/MS analysis; type: ADME, organism-based; settings: in vivo
[31] = Cmax in Sprague-Dawley rat at 1 mg/kg, iv measured upto 24 hrs by LC-MS/MS analysis; type: ADME, organism-based; set-up: dose 1 mg/kg, time < 24 hrs, route iv; settings: in vivo
[32] = system: Shigella flexneri; experiment: Antibacterial activity against Shigella flexneri ATCC 12022 assessed as bacterial growth inhibition incubated for 48 hrs by broth dilution susceptibility test; type: functional
[33] = Tmax in Sprague-Dawley rat at 20 mg/kg, po measured upto 24 hrs by LC-MS/MS analysis; type: ADME, organism-based; settings: in vivo
[34] = system: Escherichia coli; experiment: Antibacterial activity against Escherichia coli […] assessed as bacterial growth inhibition incubated for 48 hrs by broth dilution susceptibility test; type: functional
[35] = Cytotoxicity against human L02 cells assessed as inhibition of cell growth incubated for 48 hrs by CCK-8 assay; type: toxicity, cell-based
[36] = system: L02; experiment: Downregulation of HPPD gene expression in human L02 cells at 10 to 50 uM incubated for 48 hrs by RT-qPCR analysis; type: functional, cell-based; settings: dose 10-50 µM
[37] = system: MC-38; experiment: Potency index, ratio of nitisinone IC50 to test compound IC50 for antiproliferative activity against mouse MC-38 cells assessed as inhibition of cell growth incubated for 48 hrs by CCK-8 assay; type: functional
[38] = Acute toxicity in po dosed ICR mouse assessed as lung damage by measuring thickening of alveolar walls at 1500 mg/kg, po measured after 7 days by H and E staining based analysis; type: organism-based; settings: in vivo, 168 h, time 7 day
[39] = system: Fusobacterium nucleatum; experiment: Inhibition of Fusobacterium nucleatum ATCC 23726 stimulated mouse MC-38 cell migration assessed as reduction in number of migrating cells at 16 to 32 ug/ml incubated for 48 hrs by crystal violet staining based transwell assay; type: functional; settings: dose 16-32 µg/ml
[40] = Acute toxicity in po dosed ICR mouse assessed as kidney damage by measuring atrophy of glomerulus at 1500 mg/kg, po measured after 7 days by H and E staining based analysis; type: organism-based; settings: in vivo, 168 h, time 7 day

Row | Compound | IC50 at 48 h [1] [µM] | MIC50 [2] [µg/mL] | MIC50 [3] [µg/mL] | IC50 [9] [µM] | LD50 at 168 h [10] [mg/kg] | MIC50 [11] [µg/mL] | mortality at 168 h [12] [%] | MIC50 [17] [µg/mL] | MIC50 [18] [µg/mL] | inhibition [19] | MIC50 [20] [µg/mL] | MIC50 [21] [µg/mL] | Activity [23] | mortality at 168 h [25] [%] | IC50 [26] [µM] | Activity [29] | MIC50 [32] [µg/mL] | MIC50 [34] [µg/mL] | IC50 at 48 h [35] [µM] | Activity [36] | further results
1 | O=C(NCc1ccc(Br)nc1)c1ccc([N+](=O)[O-])o1 | 16 | > 64 | 1 (≈ 3.07 µM) | 32 | 2400 | > 64 | 20 | 64 (≈ 196 µM) | > 64 | Dose-Dependent Effect | > 64 | 64 (≈ 196 µM) | Dose-Dependent Effect | 70 | 11 | Dose-Dependent Effect | 64 (≈ 196 µM) | > 64 | 16 | Active | MIC90 [3]: 4 µg/mL (≈ 12.3 µM); Activity [4]: Non-Toxic; Activity [5]: Active; half-life at 1 µM [6]: 25.1 min; Drug metabolism [7]: Metabolite_Detected; clearance [8]: 601 mL/min/kg; Activity [13]: Non-Toxic; Activity [14]: Dose-Dependent Effect; inhibition [15]: Active; bioavailability [16]: 4.2%; Activity [22]: Non-Toxic; inhibition at 1 µg/mL [24]: > 50%; Activity [27]: Non-Toxic; Activity [28]: Non-Toxic; half-life [30]: ~4.08 min; Cmax [31]: 85 ng/mL; Tmax [33]: 84 min; Ratio IC50 [37]: 8
2 | O=C1CCCC(=O)C1C(=O)c1ccc(C(F)(F)F)cc1[N+](=O)[O-] [NITISINONE] | 338 | > 64 | 8 (≈ 24.3 µM) | 108 | 1610 | > 64 | 100 | > 64 | > 64 | Dose-Dependent Effect | > 64 | 64 (≈ 194 µM) | Dose-Dependent Effect | 90 | 96 | Dose-Dependent Effect | > 64 | > 64 | 104 | Active | Activity [38]: Toxic; inhibition [39]: Active; Activity [40]: Toxic
